One may read the MIC as the smallest concentration in the dilution series that meets the test's criterion for growth inhibition. High values mean a need for much substance, low ones inhibition by little substance.

Data on three compounds can be found in paper PMC10804407, “Rombocin, a Short Stable Natural Nisin Variant, Displays Selective Antimicrobial Activity against Listeria monocytogenes and Employs a Dual Mode of Action to Kill Target Bacterial Strains” (ACS Synthetic Biology, 2024).

In one data set the test system is Bacillus cereus CH-85. The data set is classed as cell-based. The protocol: (§1) Each experiment was performed in triplicate.
Data set [1] has as its system L. lactis. Description: Fluorescence microscopy assay of membrane integrity (SYTO 9 / propidium iodide). The conditions noted are these: 5× MIC, 15 min / 20 min (method), room temperature. The data set is classed as cell-based, Lactococcus lactis. The protocol: L. lactis was cultured until it reached an OD600 of 0.8 and then pelleted at 8000g for 5 min and washed three times in 0.7% NaCl. The cell density was normalized to an OD600 of 0.4 in 0.7% NaCl, and a concentration of 5-fold MIC value of each tested antibiotic was added to the cell suspension simultaneously with SYTO 9 and propidium iodide using the LIVE/DEAD Baclight Bacterial Viability Kit (Invitrogen). After incubation at room temperature for 20 min, the compounds were removed by washing the cells with 0.7% NaCl. Finally, the cell suspensions were loaded onto 1.5% agarose pads and analyzed with a DeltaVision Elite microscope (Applied Precision).

For data set [2], the system named is trypsin, chymotrypsin, and proteinase K. Description: Stability against proteolytic enzymes by residual antimicrobial activity. Type of data set: in vitro ADME. The conditions noted are these: 40 μL peptide (1 mg/mL) with 1 mg/mL proteolytic enzymes, room temperature, 3 h; residual activity in agar well vs L. lactis 1363; triplicate. The protocol:
To investigate the impact of proteolytic enzymes, pH, and temperature on the antimicrobial activity, a representative strain of L. lactis 1363 was utilized. For the proteolytic enzyme assay, 40 μL of peptide (1 mg/mL) was incubated with or without final concentrations of 1 mg/mL proteolytic enzymes at room temperature for 3 h, followed by an activity test in the agar well. To determine pH stability, the pH was adjusted to 2, 4, 7, and 10 using 1 M HCl or NaOH. The temperature stability was assessed by incubating the peptide at 22, 50, 70, and 90 °C for a specified duration. All experiments were performed in triplicate.
Overnight cultures of the test strains were inoculated at a final concentration of 0.1% (v/v) into melted LB agar at 45 °C and then poured onto plates. After solidification, 8 mm wells were created and filled with 40 μL of the lantibiotic solution (1 mg/mL). The lantibiotics were activated by adding 5 μL of NisP directly to the well. The plates were then incubated overnight at 30 °C, and the zone of inhibition was measured. Zone diameters were calculated by subtracting the area of the well (πr^2) from the area of the zone (πr^2) and reported in millimeters. To determine the peptide concentration, purified and lyophilized peptides were resuspended in 0.05% aqueous acetic acid solution and quantified by HPLC following the protocol described by Schmitt et al.[44] […]

Data set [3] relates to E. faecalis LMG16216 (VRE). The data set is classed as cell-based, Enterococcus faecalis. The protocol:
as §1

In data set [4] the test system is L. lactis MG1363. The data set is classed as cell-based, Lactococcus lactis. The procedure: as §1
In a further data set the test system is S. aureus LMG10147. Type of data set: cell-based, Staphylococcus aureus. The protocol: as §1
The subject of data set [5] is S. aureus LMG15975 (MRSA). Type of data set: cell-based, Staphylococcus aureus. The procedure: as §1
A further data set relates to L. monocytogenes TT82E. Type of data set: cell-based, Listeria monocytogenes. The procedure: as §1
The test system of data set [6] is L. monocytogenes LMG10470. Type of data set: cell-based, Listeria monocytogenes. The procedure: as §1
In the next data set the test system is L. monocytogenes LK132. The data set is classed as cell-based, Listeria monocytogenes. The protocol: as §1
Data set [7] has as its system L. lactis. Description: Membrane potential determination (DiSC3(5) probe). The conditions noted are these: 5× MIC, 10 mM HEPES with 10 mM glucose pH 7.2, 2 μM DiSC3(5), 25 min. The data set is classed as cell-based, Lactococcus lactis. The procedure: To measure the membrane potential, the membrane potential-sensitive fluorescent dye DiSC3(5) was utilized. L. lactis was cultured to an OD600 of 0.8, pelleted at 5000g for 5 min, and washed twice in 10 mM HEPES with 10 mM glucose (pH 7.2). The cell density was adjusted to an OD600 of 0.2 and loaded with 2 μM DiSC3(5) dye, followed by 20 min of incubation in the dark to stabilize the probe fluorescence. Next, the cell suspension was added to a 96-well microplate and incubated for 5 min with 100 mM KCl. […] The fluorescence spectrometer’s excitation and emission wavelengths were adjusted to 622 and 670 nm, respectively. Three technical replicates were performed, and the representative example is shown.

Data set [8] concerns L. lactis. The data set can be described thus: Potassium ion efflux assay (PBFI probe). The data set is classed as cell-based, Lactococcus lactis. The conditions noted are these: 5× MIC, 10 mM HEPES pH 7.2 with 0.5% glucose, 10 μM PBFI. The procedure: To perform the K^+ release assay, we used the K^+-specific fluorescent probe PBFI. L. lactis was cultured in GM17 until the OD600 reached 0.6, after which the cells were harvested (5000g, 5 min) and washed twice with 10 mM HEPES (pH 7.2) with 0.5% glucose. The cells were then resuspended in the same buffer containing 10 μM PBFI. Data were analyzed using a Varioskan LUX Multimode Microplate Reader; cells were excited at 346 nm, and the fluorescence emission was measured at 505 nm to establish a baseline signal before the addition of 5-fold MIC antibiotics, after which data were collected. Nisin was used as a positive control.

For data set [9], the system named is E. faecium LMG16003 (VRE). The data set is classed as cell-based, Enterococcus faecium. The protocol:
as §1

For another data set, the system named is E. faecium LMG11423. The data set is classed as cell-based, Enterococcus faecium. The protocol: as §1
Data set [10] deals with L. monocytogenes LMG10470. The data set can be described thus: Agar well diffusion assay and mutant-activity test. The settings on record: 40 μL of 1 mg/mL, zone of inhibition, triplicate. The data set is classed as cell-based, Listeria monocytogenes. The procedure: Overnight cultures of the test strains were inoculated at a final concentration of 0.1% (v/v) into melted LB agar at 45 °C and then poured onto plates. After solidification, 8 mm wells were created and filled with 40 μL of the lantibiotic solution (1 mg/mL). The lantibiotics were activated by adding 5 μL of NisP directly to the well. The plates were then incubated overnight at 30 °C, and the zone of inhibition was measured. Zone diameters were calculated by subtracting the area of the well (πr^2) from the area of the zone (πr^2) and reported in millimeters. To determine the peptide concentration, purified and lyophilized peptides were resuspended in 0.05% aqueous acetic acid solution and quantified by HPLC following the protocol described by Schmitt et al.[44] All experiments were performed in triplicate.
For orientation: Agar diffusion results depend on both activity and mobility in agar.

In data set [11] the test system is L. lactis MG1363. The data set can be described thus: Time-kill assay. The data set is classed as cell-based, Lactococcus lactis. The conditions noted are these: L. lactis, 5-fold MIC, time-dependent killing. The procedure: The bactericidal activity of nisin, nisin(1–22), and rombocin was evaluated according to a previously described procedure based on Guo et al.[38] Briefly, an overnight culture of L. lactis MG1363 was diluted 50-fold in GM17 medium and incubated at 30 °C. The bacteria were grown until reaching an optical density at 600 nm (OD600) of 0.5, at which point the cell concentration was adjusted to 5 × 10^5 CFU/mL. Subsequently, the bacteria were challenged with a 5-fold MIC of each peptide. A control sample of an untreated cell suspension was included. At specific time points, 50 μL aliquots were collected, and undiluted and 10-fold serially diluted suspensions were plated on GM17 agar. The plates were incubated overnight at 30 °C, and the resulting colonies were counted and calculated as colony-forming units per milliliter (CFU/mL). Both assays were performed in triplicate to ensure reproducibility.

Converted amounts (≈) assume the structure as drawn. Read-outs that look alike come from different tables or passages of the source. Primed or numbered codes have the meaning given here. Where no end group is shown, it is not given here. [ ]: non-standard residue; d: D form. Dhb′ = not defined here; Dha = C=C(N)C(=O)O

In the case of `C=C(NC(=O)[C@@H](NC(=O)[C@H](Cc1c[nH]cn1)NC(=O)[C@@H](NC(=O)[C@H](CO)NC(=O)[C@@H]1CS[C@@H](C)[C@H]2NC(=O)[C@H](C)NC(=O)[C@H](NC(=O)[C@H](CCCCN)NC(=O)[C@H](CCSC)NC(=O)[C@H](CC(N)=O)NC(=O)[C@@H]3CS[C@@H](C)[C@@H](NC(=O)[C@H](CCCCN)NC(=O)[C@@H]4CS[C@@H](C)[C@@H](NC(=O)[C@@H]5CSC[C@@H](NC(=O)/C(=C/C)NC(=O)[C@@H](N)[C@@H](C)CC)C(=O)N[C@@H]([C@@H](C)CC)C(=O)NC(=C)C(=O)N[C@@H](CC(C)C)C(=O)N5)C(=O)N5CCC[C@H]5C(=O)NCC(=O)N4)C(=O)NCC(=O)N[C@@H](C)C(=O)N[C@@H](CC(C)C)C(=O)N[C@@H](CCSC)C(=O)NCC(=O)N3)[C@H](C)SC[C@H](NC2=O)C(=O)N[C@@H](CC(N)=O)C(=O)N1)[C@@H](C)CC)C(C)C)C(=O)N[C@@H](CCCCN)C(=O)O` [nisin Z, reference compound], the MIC in the data set with Bacillus cereus CH-85 (Bacillus cereus CH-85, broth microdilution, no visible growth, triplicate) was 6,25 μg/mL; in [3] (E. faecalis LMG16216 (VRE), broth microdilution, no visible growth, triplicate) it was 3,13 μg/mL; in the data set on L. lactis MG1363 [4] (L. lactis MG1363, broth microdilution, lowest concentration with no visible growth, triplicate), 0,02 μg/mL; against S. aureus LMG10147 (S. aureus LMG10147, broth microdilution, no visible growth, triplicate), 6,25 μg/mL; in [5] (S. aureus LMG15975 (MRSA), broth microdilution, no visible growth, triplicate), 6,25 μg/mL; in the data set on L. monocytogenes TT82E (L. monocytogenes TT82E, broth microdilution, no visible growth, triplicate), 1,56 μg/mL. In addition, the MIC in data set [6] (L. monocytogenes LMG10470, broth microdilution, no visible growth, triplicate) is 3,13 μg/mL; in the data set with L. monocytogenes LK132 (L. monocytogenes LK132, broth microdilution, no visible growth, triplicate) it was 12,5 μg/mL; in data set [9] (E. faecium LMG16003 (VRE), broth microdilution, no visible growth, triplicate), 3,13 μg/mL; against E. faecium LMG11423 (E. faecium LMG11423, broth microdilution, no visible growth, triplicate) it was 3,13 μg/mL. Moreover, the “fold lower MIC of nisin than rombocin A” value was determined as 4 fold in the data set on Bacillus cereus CH-85 (against Bacillus cereus), 16 fold in data set [3] (against Enterococcus faecalis), 16 fold with S. aureus LMG10147 (against S. aureus (strain not given)) and 2 fold in the data set with L. monocytogenes LK132 (against L. monocytogenes LK132). Besides, in the data set on L. lactis [1], the “membrane integrity (SYTO 9 / propidium iodide fluorescence)” value is reported as “membrane disruption”. For the same compound, in data set [2], the “resistance to proteolytic enzymes” value was “varying stability”. Besides, in the data set on L. lactis MG1363 [4] (against L. lactis), the “fold lower MIC of nisin than that of rombocin” value came out at 40 times. The “membrane depolarization (DiSC3(5) fluorescence)” value in the data set with L. lactis [7] was “significant membrane depolarization, similar to nisin”. In the data set with L. lactis [8], the “release of intracellular potassium ions (PBFI fluorescence)” value was “immediate increase in signal”. For the same compound, in the data set with E. faecium LMG11423 (against Enterococcus faecium (strain not given)), the “fold higher antimicrobial activity of nisin than rombocin A (MIC)” value amounted to 32 times.

With `C=C1NC(=O)[C@H]([C@@H](C)CC)NC(=O)[C@H](NC(=O)/C(=C/C)NC(=O)[C@@H](N)[C@@H](C)CC)CSC[C@@H](C(=O)N[C@H]2C(=O)N[C@@H](C)C(=O)NCC(=O)N[C@H](C(=O)N[C@@H](CCCCN)C(=O)N[C@H]3C(=O)NCC(=O)N[C@@H](C(C)C)C(=O)N[C@@H]([C@@H](C)CC)C(=O)N[C@@H](CCSC)C(=O)N/C(=C\C)C(=O)N[C@H](C(=O)N[C@@H](CCSC)C(=O)N[C@@H]4CSC[C@@H](C(=O)N[C@@H](CCCCN)C(=O)O)NC(=O)CNC(=O)[C@H](CC(N)=O)NC4=O)CS[C@H]3C)CS[C@H]2C)NC(=O)[C@H](CC(C)C)NC1=O` [rombocin K], the MIC against Bacillus cereus CH-85 (CH-85) is 25 µg/mL (≈ 10.4 µM); in data set [3] (LMG16216) it was 50 µg/mL (≈ 20.9 µM); against L. lactis MG1363 [4] (MG1363) it was 0,78 μg/mL; in the data set with S. aureus LMG10147 (LMG10147), 100 µg/mL (≈ 41.7 µM); in data set [5] (LMG15975), 100 µg/mL (≈ 41.7 µM); against L. monocytogenes TT82E (TT82E) it was 6,25 μg/mL. In addition, the MIC in data set [6] (LMG10470) is 12,5 μg/mL; in the data set on L. monocytogenes LK132 (LK132), 12,5 μg/mL; in data set [9] (LMG16003), 50 µg/mL (≈ 20.9 µM); with E. faecium LMG11423 (LMG11423) it was 50 µg/mL (≈ 20.9 µM). The “fold lower MIC compared to the wild-type rombocin” value in data set [6] (against all tested Listeria strains) is given as 2 fold. For the same compound, the “increase in antimicrobial activity relative to wild-type rombocin” value in [10] is 13%.

On to “nisin(1–22): truncated nisin variant, bacteriostatic control that only binds lipid II (I[Dhb′]SI[Dha]LCTPGCKTGALMGCNMK; also: lantibiotic: thioether rings and dehydrated residues not placed; UniProt P13068 24-45, looked up, fragment)”, for which the “membrane integrity (SYTO 9 / propidium iodide fluorescence)” value with L. lactis [1] is listed as “did not cause any significant membrane disruption”. The “bacteriostatic or bactericidal activity” value in the data set on L. lactis MG1363 [11] is “bacteriostatic effect”. Moreover, the “membrane depolarization (DiSC3(5) fluorescence)” value in the data set with L. lactis [7] was “did not”. For the same compound, the “release of intracellular potassium ions (PBFI fluorescence)” value in the data set on L. lactis [8] was “did not have this effect”.
